What was measured:
Curly dock (RUMCR) = test: Field test, weed control, post-emergence, 15 DAT (Example 1); type: in vivo; conditions: use rate I.7 12.5 g/ha, tribenuron-methyl 10 g/ha
Excerpt: (§1) The phenyluracils I and/or the other active ingredients according to the present invention were formulated in a suitable way, either separately or in mixture, e.g. as emulsifiable concentrates (EC), soluble concentrates (SL), suspo-emulsions (SE), suspension concentrates (SC) or water-dispersible granules (WG). The formulation(s) were suspended or emulsified in water as a distribution medium immediately prior to spraying. Afterwards, the aqueous mixture was evenly sprayed on the test plots by means of finely distributing nozzles.
(§2) The test plots were of uniform size (typically between 14 and 37 square meters, each) and the distribution of treated and untreated plots was organized according to a randomised bloc design. Crops were sown in rows at a season which was typical for the region and the crop according to usual farm practice. Weeds were not sown but germinated according to the natural infestation.
(§3) For pre-plant and pre-plant burn-down treatments, the plots were treated before the crop was planted, typically 7 to 28 days prior to planting. For pre-emergence treatments, the plots were treated at planting (plus or minus two days) but before emergence. For post-emergence or in-crop treatments, the plots were treated after the emergence of the weed or crop, typically 20 to 50 days after planting. […]

Wild mustard (SINAR) = test: as above; type: in vivo; conditions: use rate I.7 12.5 g/ha, tribenuron-methyl 10 g/ha
Excerpt: as §1, §2, §3

## COC(=O)c1ccccc1S(=O)(=O)NC(=O)N(C)c1nc(C)nc(OC)n1 [tribenuron-methyl]
Curly dock (RUMCR)
  Weed control (% control) Curly dock (RUMCR) Found: 40 % control
Wild mustard (SINAR)
  Weed control (% control) Wild mustard (SINAR) Found: 100 % control
